Laboratory results reported in patent US7682635B2, “Aqueous dispersions of nanometric or micrometric particles for encapsulating chemical compounds” (Centre National de la Recherche Scientifique (C.N.R.S.), priority 2002, dated 2010).

Experiment: Encapsulation of benzophenone in particles (ultracentrifugation, spectrophotometry of supernatant at 261 nm)
Format: physicochemical
Method: An aqueous solution of polymer P2 as defined in Example 1 (0.44 g/l) was produced, to which benzophenone was added with a molar ratio of benzophenone added: cyclodextrin equal to 1:1. This solution was left under agitation for 24 hours.
A composition of particles was prepared by mixture of 1 ml of the solution thus obtained with 1 ml of a solution of modified dextran DM3 as defined in Example 1 (0.44 g/l).
After mixture, the particles produced were ultracentrifuged (30 minutes at 40000 r.p.m. in a Beckman L7-55 centrifuge). The non-encapsulated benzophenone present in the supernatant was dosaged by spectrophotometry (absorption line at 261 nm).
The experiment was repeated using a molar ratio of benzophenone added: cyclodextrin equal to 1:3 for the solution of polymer P2.
The experiment was also repeated using modified dextran DM4 instead of DM3.
Finally, the experiment was also repeated using a molar ratio of benzophenone added cyclodextrin equal to 1:3 for the solution of polymer P2 and also replacing the modified dextran DM3 by DM4.

O=C(c1ccccc1)c1ccccc1 [benzophenone]
benzophenone initially introduced found in the supernatant (4 cases: P2 with DM3 or DM4, benzophenone:cyclodextrin 1:1 or 1:3, after ultracentrifugation): less than 70%
benzophenone content of particles (molar ratio benzophenone:cyclodextrin 1:1 in the initial solution of P2): 1 % by mass
benzophenone content of particles (molar ratio benzophenone:cyclodextrin 1:3): 3 % by mass
